For 19 compounds, melting point, inhibition and IC50 results are on record in US20020028938A1, “Prostaglandin endoperoxide H synthase biosynthesis inhibitors” (priority 1997, published 2002).

Data set [1] has as its target T1, recombinant human Cox-1 (r-hu Cox1) (Homo sapiens, UniProt P23219).
T1 construct: made in house; host or cells: baculovirus/Sf9 insect cells (microsomes)
Description: Recombinant human PGHS-1 enzyme assay (RHUCX1). The class given is biochemical. The following applies: for inhibition at 100 µM / inhibition at 1 µM / inhibition at 10 µM: read-out: RHUCX1 % Inh. at Dose. On the procedure:
(§1) To compare the mean responses of the treatment groups, analysis of variance was applied. Percent inhibition values were determined by comparing the individual treatment mean values to the mean of the control group. Linear regression was used to estimate IC50's/ED50's in appropriate assays.
(§2) EIA reagents for prostaglandin determination were purchased from Perseptive Diagnostics, (Cambridge, Mass.). Prostaglandin E2 (PGE2) levels in lavage fluids were determined after the samples were dried under nitrogen and reconstituted with assay buffer. PGE2 levels in enzyme assays or cell culture media were measured against standards prepared in the same milieu. The immunoassays were conducted as recommended by the manufacturer. The EIA was conducted in 96 well microtiter plates (Nunc Roskilde, Denmark) and optical density was measured using a microplate reader (Vmax, Molecular Devices Corp., Menlo Park, Calif.).
(§3) Inhibition of prostaglandin biosynthesis in vitro was evaluated using recombinant human Cox-1 (r-hu Cox1) and Cox-2 (r-hu Cox-2) enzyme assays. […] The reaction was allowed to run for 2.5 minutes at room temperature prior to quenching with HCl and neutralization with NaOH. PGE2 production in the presence and absence of the drug was determined by EIA analysis. The EIA was conducted in 96 well microtiter plates (Nunc Roskilde, Denmark) and optical density was measured using a microplate reader (Vmax, Molecular Devices Corp., Menlo Park, Calif.). EIA reagents for prostaglandin determination were purchased from Perseptive Diagnostics (Cambridge, Mass.). PGE2 levels were measured against standards prepared in the same milieu. The immunoassays were conducted as recommended by the manufacturer.

Data set [2] addresses T2, recombinant human Cox-2 (r-hu Cox-2) (Homo sapiens, UniProt P35354).
T2 construct: made in house; host or cells: baculovirus/Sf9 insect cells (microsomes)
T2 sequence (P35354 18-604): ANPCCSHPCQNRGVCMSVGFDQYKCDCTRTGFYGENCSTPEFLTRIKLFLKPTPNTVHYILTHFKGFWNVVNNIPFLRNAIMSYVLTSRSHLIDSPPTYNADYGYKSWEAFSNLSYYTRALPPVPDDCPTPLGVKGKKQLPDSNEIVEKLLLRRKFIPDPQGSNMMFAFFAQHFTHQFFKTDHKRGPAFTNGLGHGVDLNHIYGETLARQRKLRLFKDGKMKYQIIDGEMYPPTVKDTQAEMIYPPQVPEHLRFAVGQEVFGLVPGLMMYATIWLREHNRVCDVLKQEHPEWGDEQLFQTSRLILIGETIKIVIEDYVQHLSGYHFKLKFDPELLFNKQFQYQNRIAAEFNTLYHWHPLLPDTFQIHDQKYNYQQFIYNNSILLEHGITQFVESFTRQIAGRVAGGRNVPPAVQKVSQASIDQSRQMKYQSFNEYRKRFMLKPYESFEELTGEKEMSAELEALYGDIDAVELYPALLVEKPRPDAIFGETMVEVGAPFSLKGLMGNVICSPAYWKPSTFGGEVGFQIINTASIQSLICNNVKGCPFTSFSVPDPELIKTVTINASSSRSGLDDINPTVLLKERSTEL
Description: Recombinant human PGHS-2 enzyme assay (RHUCX2). The format is biochemical. The following applies: for IC50: read-out: RHUCX2 IC50 (parenthetical value). The protocol: as §1, §2, §3

Setting [3] is: read-out: RHUCX2 % Inh. at Dose.

Molecules are shown by their SMILES.

One may read the melting point as the temperature, or range, at which the solid turns liquid. Usually IC50 stands for the concentration that gives 50% inhibition.

T1 sequence (P23219 24-599): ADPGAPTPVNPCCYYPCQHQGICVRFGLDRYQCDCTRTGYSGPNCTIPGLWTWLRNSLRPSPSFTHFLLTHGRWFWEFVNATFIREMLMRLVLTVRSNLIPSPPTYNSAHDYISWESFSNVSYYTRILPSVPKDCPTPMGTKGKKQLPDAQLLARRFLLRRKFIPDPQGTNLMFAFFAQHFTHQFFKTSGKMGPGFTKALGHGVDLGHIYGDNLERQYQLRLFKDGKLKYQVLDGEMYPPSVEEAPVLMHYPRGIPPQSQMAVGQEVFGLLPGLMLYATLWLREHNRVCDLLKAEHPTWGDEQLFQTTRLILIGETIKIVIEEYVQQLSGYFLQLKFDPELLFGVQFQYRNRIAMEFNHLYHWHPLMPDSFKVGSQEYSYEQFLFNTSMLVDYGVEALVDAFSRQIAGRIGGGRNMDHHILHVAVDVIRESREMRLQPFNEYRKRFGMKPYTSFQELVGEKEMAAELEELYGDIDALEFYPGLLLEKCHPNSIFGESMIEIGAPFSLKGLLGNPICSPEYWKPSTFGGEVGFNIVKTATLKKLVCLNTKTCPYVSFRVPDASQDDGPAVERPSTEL

Regarding `CS(=O)(=O)c1ccc(-c2cnn(Cc3ncc(Cl)s3)c(=O)c2-c2ccc(F)cc2)cc1` [Example 39, 2-(5-Chlorothiazol-2-ylmethyl)-4-(4-fluorophenyl)-5-[4-(methylsulfonyl)phenyl]-3(2H)-pyridazinone], the melting point fell in the range of 185 to 186 °C. Besides, the inhibition at 100 µM in data set [1] is 0%. In data set [2], the 50% inhibitory concentration (IC50) turned out to be 440 nM.
The compound `CS(=O)(=O)c1ccc(-c2cnn(C=C(F)C(F)(F)C(F)(F)F)c(=O)c2-c2ccc(F)cc2)cc1` [Example 40, 2-(2,3,3,4,4,4-Hexafluorobuten-1-yl)-4-(4-fluorophenyl)-5-[4-(methylsulfonyl)phenyl]-3(2H)-pyridazinone] displayed a melting point of 167 to 169 °C. Further, in data set [1], the inhibition at 1 µM is 69% and the inhibition at 10 µM was 76%. In data set [2] (setting [3]), the inhibition at 0.1 µM stood at 89% and the inhibition at 1 µM came to 97%.
For the compound `CS(=O)(=O)c1ccc(-c2cnn(Cc3c(F)c(F)c(F)c(F)c3F)c(=O)c2-c2ccc(F)cc2)cc1` [Example 45, 2-(2,3,4,5,6-Pentafluorobenzyl)-4-(4-fluorophenyl)-5-[4-(methylsulfonyl)phenyl]-3(2H)-pyridazinone], the melting point lay within 115 to 116 °C. The inhibition at 100 µM in data set [1] was found to be 5%. For the same compound, in data set [2] (setting [3]), the inhibition at 0.1 µM came to 63% and the inhibition at 1 µM was determined as 85%.
Turning to `CC(c1ccc(F)cc1)n1ncc(-c2ccc(S(C)(=O)=O)cc2)c(-c2ccc(F)cc2)c1=O` (stereo not drawn) [Example 50, 2-(α-Methyl-4-fluorobenzyl)-4-(4-fluorophenyl)-5-[4-(methylsulfonyl)phenyl]-3(2H)-pyridazinone], the melting point fell in the range of 162 to 164 °C. Moreover, the inhibition at 100 µM in data set [1] amounted to 23%. In addition, in data set [2] (setting [3]), the inhibition at 0.1 µM was 59% and the inhibition at 1 µM was 99%.
`CS(=O)(=O)c1ccc(-c2cnn(Cc3ccccc3)c(=O)c2-c2ccc(F)c(Cl)c2)cc1` [Example 52, 2-Benzyl-4-(3-chloro-4-fluorophenyl)-5-[4-(methylsulfonyl)phenyl]-3(2H)-pyridazinone] showed a melting point of 134 to 136 °C. Further, the inhibition at 10 µM in data set [1] was determined as 32%. Also, in data set [2] (setting [3]), the inhibition at 0.1 µM stood at 83% and the inhibition at 1 µM was found to be 99%.
Compound `CS(=O)(=O)c1ccc(-c2cnn(CC(F)(F)F)c(=O)c2-c2ccc(Cl)c(Cl)c2)cc1` [Example 81, 2-(2,2,2-Trifluoroethyl)-4-(3,4-dichlorophenyl)-5-[4-(methylsulfonyl)phenyl]-3(2H)-pyridazinone] returned a melting point of 197 to 198 °C. Besides, in data set [1], the inhibition at 100 µM was 6%. Further, in data set [2] (setting [3]), the inhibition at 0.1 µM was 44% and the inhibition at 1 µM turned out to be 97%.
Take `CSc1cccc(-n2ncc(-c3ccc(S(C)(=O)=O)cc3)c(-c3ccc(F)cc3)c2=O)c1` [Example 97, 2-[3-(Methylthio)phenyl]-4-(4-fluorophenyl)-5-[4-(methylsulfonyl)phenyl]-3(2H)-pyridazinone]: the melting point was 196 °C. Further, in data set [1], the inhibition at 100 µM came to 35%. For the same compound, the IC50 in data set [2] was 332 nM.
In the case of `CS(=O)(=O)c1ccc(-c2cnn(-c3cc(F)cc(F)c3)c(=O)c2Oc2ccc(F)cc2)cc1` [Example 111, 2-(3,5-Difluorophenyl)-4-(4-fluorophenoxy)-5-[4-(methylsulfonyl)phenyl]-3(2H)-pyridazinone], the melting point lay within 209 to 211 °C. Also, in data set [1], the inhibition at 100 µM was determined as 13%. The concentration for half-maximal inhibition (IC50) in data set [2] was determined as 52 nM.
For `CS(=O)(=O)c1ccc(-c2cnn(C3CCC3)c(=O)c2-c2ccc(F)cc2)cc1` [Example 122, 2-Cyclobutyl-4-(4-fluorophenyl)-5-[4-(methylsulfonyl)phenyl]-3(2H)-pyridazinone], in that order: 202 to 203 °C, 1% and 285 nM.
For `NS(=O)(=O)c1ccc(-c2cnn(Cc3ccc(F)cc3F)c(=O)c2-c2ccc(F)cc2)cc1` [Example 124, 2-(2,4-Difluorobenzl)-4-(4-fluorolphenyl)-5-[4-(aminosulfonyl)phenyl]-3(2H)-pyridazinone], in that order: 236 to 238 °C, 26% and 44 nM.
For the compound `NS(=O)(=O)c1ccc(-c2cnn(Cc3ccc(F)c(F)c3)c(=O)c2-c2ccc(F)cc2)cc1` [Example 127, 2-(3,4-Difluorobenzyl)-4-(4-fluorophenyl)-5-[4-(aminosulfonyl)phenyl]-3(2H)-pyridazinone], the melting point was 253 to 255 °C. For the same compound, in data set [1], the inhibition at 1 µM was found to be 30% and the inhibition at 10 µM was 50%. In data set [2] (setting [3]), the inhibition at 0.1 µM was 51% and the inhibition at 1 µM is 74%.
Compound `CS(=O)(=O)c1ccc(-c2cnn(C3Cc4ccccc4C3)c(=O)c2-c2ccc(F)cc2)cc1` [Example 128, 2-(2,3-Dihydro-1H-inden-2-yl)-4-(4-fluorophenl)-5-[4-(methylsulfonyl)phenyl]-3(2H)-pyridazinone] displayed a melting point of 97 to 100 °C. Moreover, the inhibition at 100 µM in data set [1] amounted to 14%. Also, in data set [2], the IC50 is 477 nM.
In turn, `CC1(n2ncc(-c3ccc(S(C)(=O)=O)cc3)c(-c3ccc(F)cc3)c2=O)CCCC1` [Example 134] had a melting point of 107 to 110 °C. In addition, in data set [1], the inhibition at 10 µM was 35% and the inhibition at 100 µM was determined as 54%. Moreover, in data set [2], the half-maximal inhibitory concentration (IC50) was 53 nM.
On to `CC(c1cccc(F)c1)n1ncc(-c2ccc(S(N)(=O)=O)cc2)c(-c2ccc(F)cc2)c1=O` (stereo not drawn) [Example 144, 2-(α-Methyl-3-fluorobenzyl)-4-(4-fluorophenyl)-5-[4-(aminosulfonyl)phenyl]-3(2H)-pyridazinone], for which the melting point lay within 192 to 194 °C. In addition, in data set [1] (read-out: RHUCX1 IC50 (parenthetical value)), the IC50 was determined as 58 nM. Further, the inhibition at 0.01 µM in data set [2] (0.01 μM, read-out: RHUCX2 % Inh. at Dose) came out at 65%. For the same compound, in data set [2] (setting [3]), the inhibition at 0.1 µM came to 78% and the inhibition at 1 µM amounted to 88%.
In turn, `NS(=O)(=O)c1ccc(-c2cnn(Cc3ccc(F)cc3)c(=O)c2-c2ccc(F)cc2)cc1` [Example 150, 2-(4-Fluorobenzyl)-4-(4-fluorophenyl)-5-[4-(aminosulfonyl)phenyl]-3(2H)-pyridazinone] showed a melting point of 237 to 239 °C. Moreover, in data set [1], the inhibition at 10 µM was determined as 39% and the inhibition at 100 µM worked out at 56%. The inhibition at 0.1 µM in data set [2] (setting [3]) came out at 100%.
In turn, `CCCCC(CC)COc1c(-c2ccc(S(C)(=O)=O)cc2)cnn(-c2ccc(F)cc2)c1=O` (stereo not drawn) [Example 178, 2-(4-Fluorophenyl)-4-(2-ethyl-1-hexyloxy)-5-[4-(methylsulfonyl)phenyl]-3(2H)-pyridazinone] registered a melting point of 120 to 122 °C. The inhibition at 100 µM in data set [1] was found to be 6%. Besides, the inhibition at 10 µM in data set [2] (10 μM, read-out: RHUCX2 % Inh. at Dose) came out at 34%.
Compound `CS(=O)(=O)c1ccc(-c2cnn(-c3cc(Cl)cc(Cl)c3)c(=O)c2-c2ccc(F)cc2)cc1` [Example 188, 2-(3,5-Dichlorophenyl)-4-(4-fluorophenyl)-5-[4-(methylsulfonyl)phenyl]-3-(2H)-pyridazinone] returned a melting point of 289 to 294 °C. Also, the inhibition at 100 µM in data set [1] came to 18%. The IC50 in data set [2] amounted to 526 nM.
In turn, `CS(=O)(=O)c1ccc(-c2cnn(-c3ccc(F)cc3)c(=O)c2Cc2ccccc2)cc1` [Example 230, 2-(4-Fluorophenyl)-4-benzyl-5-[4-(methylsulfonyl)phenyl]-3(2H)-pyridazinone] yielded a melting point of 180 to 182 °C. The inhibition at 100 µM in data set [1] turned out to be 4%. Besides, the IC50 in data set [2] was determined as 215 nM.
As for `CS(=O)(=O)c1ccc(-c2cnn(-c3ccc(F)c(F)c3)c(=O)c2C2CCCCC2)cc1` [Example 232, 2-(3,4-Difluorophenyl)-4-cyclohexyl-5-[4-(methylsulfonyl)phenyl]-3(2H)-pyrdazinone], the melting point was 80 to 83 °C. Also, in data set [1], the inhibition at 100 µM came to 23%. The IC50 in data set [2] was determined as 24 nM.
